The source made the active and inactive calls. The rule behind the calls is not given here.
Legend:
Haemonchus contortus [1] = experiment: Anti-helmintic activity against third-stage xL3 Haemonchus contortus larvae assessed as inhibition of larvae motility at 100 uM measured after 72 hrs; format: functional, organism-based
Cryptococcus neoformans [2] = experiment: Antimicrobial activity against Cryptococcus neoformans var. grubii ATCC 208821 assessed as inhibition of fungal growth at 4 ug/ml incubated for 24 hrs by resazurin dye based assay; format: functional; set-up: scale not given: the % may be the effect or the level left; conditions: dose 4 µg/ml
Haemonchus contortus [3] = experiment: Anti-helmintic activity against fourth stage L4 Haemonchus contortus larvae assessed as inhibition of larvae motility at 100 uM after 72 hrs; format: functional; set-up: scale not given: the % may be the effect or the level left
Candida albicans [4] = experiment: Antimicrobial activity against Candida albicans ATCC 90028 assessed as inhibition of fungal growth at 8 ug/ml incubated for 24 hrs by resazurin dye based assay; format: functional; set-up: scale not given: the % may be the effect or the level left; conditions: dose 8 µg/ml
Haemonchus contortus [5] = experiment: Anti-helmintic activity against fourth stage L4 Haemonchus contortus larvae assessed as induction of abnormal morphological phenotype at >= 50 uM after 7 days; format: functional, organism-based; conditions: dose microM >=50, time 7.0 day
HEK293 = experiment: Cytotoxicity against human HEK293 cells at 32 ug/ml; format: cell-based
Candida albicans [6] = experiment: Antimicrobial activity against Candida albicans ATCC 90028 assessed as inhibition of fungal growth at 32 ug/ml incubated for 24 hrs by resazurin dye based assay; format: functional, organism-based; conditions: dose 32.0 µg/ml
Acinetobacter baumannii = experiment: Antimicrobial activity against Acinetobacter baumannii ATCC 19606 assessed as inhibition of bacterial growth at 32 ug/ml incubated for 18 hrs by resazurin dye based assay; format: functional, organism-based; conditions: ATCC 19606 = CIP 70.34 = JCM 6841, dose 32.0 µg/ml
Klebsiella pneumoniae = experiment: Antimicrobial activity against Klebsiella pneumoniae ATCC 700603 assessed as inhibition of bacterial growth at 32 ug/ml incubated for 18 hrs by resazurin dye based assay; format: functional, organism-based; conditions: dose 32.0 µg/ml
Pseudomonas aeruginosa = experiment: Antimicrobial activity against Pseudomonas aeruginosa ATCC 27853 assessed as inhibition of bacterial growth at 32 ug/ml incubated for 18 hrs by resazurin dye based assay; format: functional, organism-based; conditions: dose 32.0 µg/ml
Cryptococcus neoformans [7] = experiment: Antimicrobial activity against Cryptococcus neoformans var. grubii ATCC 208821 assessed as inhibition of fungal growth at 32 ug/ml incubated for 24 hrs by resazurin dye based assay; format: functional; conditions: dose 32.0 µg/ml
Staphylococcus aureus [8] = experiment: Antimicrobial activity against methicillin-resistant Staphylococcus aureus ATCC 43300 assessed as inhibition of bacterial growth at 32 ug/ml incubated for 18 hrs by resazurin dye based assay; format: functional, organism-based; conditions: dose 32.0 µg/ml
Escherichia coli = experiment: Antimicrobial activity against Escherichia coli ATCC 25922 assessed as inhibition of bacterial growth at 32 ug/ml incubated for 18 hrs by resazurin dye based assay; format: functional, organism-based; conditions: dose 32.0 µg/ml
[9] = Hemolytic activity against RBC (unknown origin) at 32 ug/ml; format: ADME, cell-based, Erythrocyte; conditions: red blood cells (erythrocytes), at 32 µg/mL, read-out: Activity
Cryptococcus neoformans [10] = experiment: Antimicrobial activity against Cryptococcus neoformans var. grubii ATCC 208821 assessed as inhibition of fungal growth at 8 ug/ml incubated for 24 hrs by resazurin dye based assay; format: functional; set-up: scale not given: the % may be the effect or the level left; conditions: dose 8 µg/ml
Staphylococcus aureus [11] = experiment: Antimicrobial activity against methicillin-resistant Staphylococcus aureus ATCC 43300 assessed as inhibition of bacterial growth at < 0.2 ug/ml incubated for 18 hrs by resazurin dye based assay; format: functional; set-up: scale not given: the % may be the effect or the level left; conditions: dose microg/ml <0.2

COc1ccc(-c2oc3cc(OC4OC(C)C(O)C(OC(C)=O)C4O)cc(O)c3c(=O)c2OC2OC(C)C(O)C(O)C2O)cc1O (configuration not stated)
Activity (Haemonchus contortus [1]): inactive

CC1=C(O)C(=O)c2c(O)ccc(O)c2C1=O
Activity (Haemonchus contortus [1]): inactive
Activity (Cryptococcus neoformans [2]): 100%
Activity (Haemonchus contortus [3]): 27%
Activity (Candida albicans [4]): 98%
Activity (Haemonchus contortus [5]): Active
Activity (HEK293; dose 32 µg/ml): Non-Toxic

COc1ccc(-c2oc3cc(OC4OC(C)C(O)C(O)C4O)cc(O)c3c(=O)c2OC2OC(C)C(O)C(O)C2O)cc1O (configuration not stated)
Activity (Haemonchus contortus [1]): inactive

CC1=C(O)C(=O)c2c(OC3OC(CO)C(O)C(O)C3O)ccc(O)c2C1=O (configuration not stated)
Activity (Candida albicans [6]): Active

O=C1CC(c2ccc(O)cc2)Oc2cc(O)c([C@@H]3O[C@H](CO)[C@@H](O)[C@H](O)[C@H]3O)c(O)c21 (some centres not stated)
Activity (Acinetobacter baumannii): Active
Activity (Klebsiella pneumoniae): Active
Activity (Pseudomonas aeruginosa): Active
Activity (Cryptococcus neoformans [7]): Active
Activity (Candida albicans [6]): Active
Activity (Staphylococcus aureus [8]): Active
Activity (Escherichia coli): Active

O=c1c(O[C@@H]2O[C@H](CO)[C@@H](O)[C@H](O)[C@H]2O)c(-c2ccc(O)c(O)c2)oc2cc(O)cc(O)c12 [ISOQUERCETIN]
Activity (Acinetobacter baumannii): Active
hemolysis at 32 ug/ml [9]: > 10%
Activity (Klebsiella pneumoniae): Active
Activity (Pseudomonas aeruginosa): Active
Activity (Cryptococcus neoformans [7]): Active
Activity (Candida albicans [6]): inactive
Activity (Staphylococcus aureus [8]): Active
Activity (Escherichia coli): Active

CC1=CC(=O)c2c(O)cccc2C1=O [PLUMBAGIN]
Activity (Cryptococcus neoformans [10]): 100%
Activity (HEK293; at 32 µg/mL): 92%
Activity (Staphylococcus aureus [11]): 96%
